In the assay the target is T1, CRAC channel (Homo sapiens, UniProt Q96D31).
T1 construct: endogenous in cells; host or cells: HEK293 (ECACC), untransfected
In words: HEK Calcium Influx Assay (FLIPR), inhibition of store-operated Ca2+ entry after thapsigargin store depletion. It counts as cell-based. The note with it: 10 μM compound, HEK293 cells, read-out: % inhib. [@ 10 μM] FLIPR. How it is done: The effect of compounds of the invention on intracellular [Ca^2+] was tested in the HEK293 cell line (ECACC).
HEK293 cells were cultured in DMEM/F12/Glutamax (Gibco) containing 10% FCS (Gibco), and maintained at 37° C., 5% CO2. Cell were split twice a week [3*10^6 (Mon-Thu) and 1*10^6 (Thu-Mon) cells/50 ml medium in 1-175 ZK culture flasks, respectively]. Twenty four hours pre-experiment, cells were seeded on 96 well plates (Poly-D-Lysine 96 well Black/Clear Plate, BD Biocoat REF 356640) at a density of 40,000 cells/well in DMEM/F12 (Gibco) containing 10% FCS (Gibco), and maintained at 37° C., 5% CO2.
Prior to store-depletion, cell culture medium was removed and cells were loaded with the Calcium-sensitive fluorescent dye comprised within the Calcium-4-assay kit (Molecular Devices) in nominally Ca^2+-free HBS buffer (140 mM NaCl, 4 mM KCl, 0.2 mM MgCl2, 11 mM D-glucose, and 10 mM HEPES, pH 7.4) according to manufacturer's instruction for 60 min at 37° C., 5% CO2.
Passive depletion of intracellular Ca^2+-stores was then triggered by employing the SERCA inhibitor thapsigargin (2 μM final) for 10 min in the dark (RT). To prevent immediate Ca^2+-entry via the activated store-operated channels (SOCs), cells were maintained in Ca^2+-free HBS buffer comprising 100 μM EGTA during store-depletion.
Intracellular changes in [Ca^2+] were subsequently monitored with the FLIPR device (Molecular Devices). In brief, baseline imaging post-store depletion was allowed for 1 min before adjusting the extracellular buffer to 3 mM CaCl2. Increases in intracellular [Ca^2+] due to pre-activated SOC channels were monitored for 15 min until intracellular Ca^2+ levels had declined into a steady-state. Finally, compounds were administered, and Ca^2+ signals were recorded for additional 10 min.
Inhibition of endogenous SOC in HEK293 cells was quantified employing the average Ca^2+ signal measured from 9.5-10 min post-administration. Zero percent inhibition (MAX) was defined as the Ca^2+ signal recorded from wells to which DMSO-only had been added instead of compound. Hundred percent inhibition (MIN) was defined as the signal obtained from wells in which cells haven't been treated with TG prior to Ca^2+ addition and to which DMSO-only had been added instead of compound. For routine IC50 determinations of compounds, 8 concentrations of a serial dilution (1:3.16) were tested, starting off from 10 μM. Reliable IC50's could consequently be determined only, if they were at least sub 2.5-3 μM.

Where only a bound is given, the exact number is not on record here.

T1 sequence (Q96D31 whole entry): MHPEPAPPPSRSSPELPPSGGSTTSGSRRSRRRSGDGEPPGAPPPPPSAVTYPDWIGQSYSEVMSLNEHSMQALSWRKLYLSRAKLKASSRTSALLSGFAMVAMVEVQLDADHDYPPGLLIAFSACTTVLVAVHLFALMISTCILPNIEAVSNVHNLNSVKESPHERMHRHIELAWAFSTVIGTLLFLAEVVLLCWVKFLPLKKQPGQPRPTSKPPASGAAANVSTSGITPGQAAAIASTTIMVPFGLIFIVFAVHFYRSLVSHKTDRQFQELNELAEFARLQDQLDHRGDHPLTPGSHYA

For the molecule `Cc1sc(-c2ccccn2)nc1N1CCc2[nH]c(-c3c(F)cccc3F)cc2C1=O` [Example 5, 2-(2,6-Difluoro-phenyl)-5-(5-methyl-2-pyridin-2-yl-thiazol-4-yl)-1,5,6,7-tetrahydro-pyrrolo[3,2-c]pyridin-4-one], the inhibition at 10 µM is 50 to 70%. In the case of `Cc1sc(-c2cccnc2)nc1N1CCc2[nH]c(-c3c(F)cccc3Cl)cc2C1` [Example 17, 4-[2-(2-Chloro-6-fluoro-phenyl)-4,5,6,7-tetrahydro-1H-pyrrolo[3,2-c]pyridin-5-yl]-5-methyl-2-pyridin-3-yl-thiazole], the inhibition at 10 µM was above 70%.

With `Cc1ccc(C#N)cc1N1CCc2[nH]c(-c3c(F)cccc3F)cc2C1` [Example 29, 3-[2-(2,6-Difluoro-phenyl)-4,5,6,7-tetrahydro-1H-pyrrolo[3,2-c]pyridin-5-yl]-4-methyl-benzonitrile], the inhibition at 10 µM fell in the range of 50 to 70%.

Consider `Cc1cc(Cl)ncc1N1CCc2[nH]c(-c3c(F)cccc3F)cc2C1=O` [Example 38, 5-(6-Chloro-4-methyl-pyridin-3-yl)-2-(2,6-difluoro-phenyl)-1,5,6,7-tetrahydro-pyrrolo[3,2-c]pyridin-4-one], for which the inhibition at 10 µM is above 70%. To `COc1cc(C)c(N2CCc3[nH]c(-c4c(F)cccc4F)cc3C2=O)cn1` [Example 39, 2-(2,6-Difluoro-phenyl)-5-(6-methoxy-4-methyl-pyridin-3-yl)-1,5,6,7-tetrahydro-pyrrolo[3,2-c]pyridin-4-one] belongs 50 to 70%; to `COc1cc(C#N)ccc1N1CCc2[nH]c(-c3c(F)cccc3Cl)cc2C1=O` [Example 41, 4-[2-(2-Chloro-6-fluoro-phenyl)-4-oxo-1,5,6,7-tetrahydro-pyrrolo[3,2-c]pyridin-5-yl]-3-methoxy-benzonitrile], 50 to 70%. Next, `Cc1sc(-c2cccnc2)nc1N1CCc2[nH]c(-c3c(F)cccc3Cl)cc2C1=O` [Example 42, 2-(2-Chloro-6-fluoro-phenyl)-5-(5-methyl-2-pyridin-3-yl-thiazol-4-yl)-1,5,6,7-tetrahydro-pyrrolo[3,2-c]pyridin-4-one]: above 70%; `Cc1sc(-c2cccnc2)nc1N1CCc2[nH]c(-c3ccc(Cl)nc3)cc2C1=O` [Example 43, 2-(6-Chloro-pyridin-3-yl)-5-(5-methyl-2-pyridin-3-yl-thiazol-4-yl)-1,5,6,7-tetrahydro-pyrrolo[3,2-c]pyridin-4-one]: 50 to 70%; `Cc1cc(Cl)ncc1N1CCc2[nH]c(-c3ccc(F)cc3F)cc2C1=O` [Example 44, 5-(6-Chloro-4-methyl-pyridin-3-yl)-2-(2,4-difluoro-phenyl)-1,5,6,7-tetrahydro-pyrrolo[3,2-c]pyridin-4-one]: 50 to 70%. Next, `Cc1cc(Cl)ncc1N1CCc2[nH]c(-c3c(F)cccc3Cl)cc2C1=O` [Example 45, 2-(2-Chloro-6-fluoro-phenyl)-5-(6-chloro-4-methyl-pyridin-3-yl)-1,5,6,7-tetrahydro-pyrrolo[3,2-c]pyridin-4-one]: above 70%; `O=C1c2cc(-c3c(F)cccc3F)[nH]c2CCN1c1c(F)cccc1F` [Example 46, 2,5-Bis(2,6-difluoro-phenyl)-1,5,6,7-tetrahydro-pyrrolo[3,2-c]pyridin-4-one]: 50 to 70%. Regarding `Cc1sccc1N1CCc2[nH]c(-c3c(F)cccc3F)cc2C1=O` [Example 47, 2-(2,6-Difluoro-phenyl)-5-(2-methyl-thiophen-3-yl)-1,5,6,7-tetrahydro-pyrrolo[3,2-c]pyridin-4-one], the inhibition at 10 µM was above 70%.

In the case of `Cc1sc(C2CC2)nc1N1CCc2[nH]c(-c3c(F)cccc3F)cc2C1=O` [Example 48, 5-(2-Cyclopropyl-5-methyl-thiazol-4-yl)-2-(2,6-difluoro-phenyl)-1,5,6,7-tetrahydro-pyrrolo[3,2-c]pyridin-4-one], the inhibition at 10 µM is above 70%.

`O=C1c2cc(-c3c(F)cccc3Cl)[nH]c2CCN1c1c(F)cccc1F` [Example 49, 2-(2-Chloro-6-fluoro-phenyl)-5-(2,6-difluoro-phenyl)-1,5,6,7-tetrahydro-pyrrolo[3,2-c]pyridin-4-one]: the inhibition at 10 µM is above 70%.

In the case of `Cc1ccc(Cl)cc1N1CCc2[nH]c(-c3c(F)cccc3Cl)cc2C1=O` [Example 50, 2-(2-Chloro-6-fluoro-phenyl)-5-(5-chloro-2-methyl-phenyl)-1,5,6,7-tetrahydro-pyrrolo[3,2-c]pyridin-4-one], the inhibition at 10 µM is 50 to 70%.

`Cc1sccc1N1CCc2[nH]c(-c3c(F)cccc3Cl)cc2C1=O` [Example 51, 2-(2-Chloro-6-fluoro-phenyl)-5-(2-methyl-thiophen-3-yl)-1,5,6,7-tetrahydro-pyrrolo[3,2-c]pyridin-4-one]: the inhibition at 10 µM was above 70%. Turning to `Cc1sc(C2CC2)nc1N1CCc2[nH]c(-c3c(F)cccc3Cl)cc2C1=O` [Example 52, 2-(2-Chloro-6-fluoro-phenyl)-5-(2-cyclopropyl-5-methyl-thiazol-4-yl)-1,5,6,7-tetrahydro-pyrrolo[3,2-c]pyridin-4-one], the inhibition at 10 µM was above 70%. To `Cc1sc(-c2ncco2)nc1N1CCc2[nH]c(-c3c(F)cccc3Cl)cc2C1=O` [Example 53, 2-(2-Chloro-6-fluoro-phenyl)-5-(5-methyl-2-oxazol-2-yl-thiazol-4-yl)-1,5,6,7-tetrahydro-pyrrolo[3,2-c]pyridin-4-one] belongs above 70%. Next, `Cc1sc(-c2ncco2)nc1N1CCc2[nH]c(-c3c(F)cccc3F)cc2C1=O` [Example 54, 2-(2,6-Difluoro-phenyl)-5-(5-methyl-2-oxazol-2-yl-thiazol-4-yl)-1,5,6,7-tetrahydro-pyrrolo[3,2-c]pyridin-4-one]: above 70%; `Cc1sccc1N1CCc2[nH]c(-c3c(F)cccc3F)cc2C1` [Example 55, 2-(2,6-Difluoro-phenyl)-5-(2-methyl-thiophen-3-yl)-4,5,6,7-tetrahydro-1H-pyrrolo[3,2-c]pyridine]: above 70%.

In the case of `Cc1sc(C2CC2)nc1N1CCc2[nH]c(-c3c(F)cccc3F)cc2C1` [Example 56, 2-Cyclopropyl-4-[2-(2,6-difluoro-phenyl)-4,5,6,7-tetrahydro-1H-pyrrolo[3,2-c]pyridin-5-yl]-5-methyl-thiazole], the inhibition at 10 µM was above 70%. Next, `Cc1sc(-c2ncco2)nc1N1CCc2[nH]c(-c3c(F)cccc3F)cc2C1` [Example 57, 2-[4-[2-(2,6-Difluoro-phenyl)-4,5,6,7-tetrahydro-1H-pyrrolo[3,2-c]pyridin-5-yl]-5-methyl-thiazol-2-yl]-oxazole]: above 70%.

For `Cc1cc(N2CCc3[nH]c(-c4c(F)cccc4F)cc3C2)n(C)n1` [Example 58, 2-(2,6-Difluoro-phenyl)-5-(2,5-dimethyl-2H-pyrazol-3-yl)-4,5,6,7-tetrahydro-1H-pyrrolo[3,2-c]pyridine], the inhibition at 10 µM is above 70%. Next, `Cc1sccc1N1CCc2[nH]c(-c3c(F)cccc3Cl)cc2C1` [Example 60, 2-(2-Chloro-6-fluoro-phenyl)-5-(2-methyl-thiophen-3-yl)-4,5,6,7-tetrahydro-1H-pyrrolo[3,2-c]pyridine]: above 70%; `Cc1sc(C2CC2)nc1N1CCc2[nH]c(-c3c(F)cccc3Cl)cc2C1` [Example 61, 4-[2-(2-Chloro-6-fluoro-phenyl)-4,5,6,7-tetrahydro-1H-pyrrolo[3,2-c]pyridin-5-yl]-2-cyclopropyl-5-methyl-thiazole]: above 70%; `Cc1sc(-c2ncco2)nc1N1CCc2[nH]c(-c3c(F)cccc3Cl)cc2C1` [Example 62, 2-[4-[2-(2-Chloro-6-fluoro-phenyl)-4,5,6,7-tetrahydro-1H-pyrrolo[3,2-c]pyridin-5-yl]-5-methyl-thiazol-2-yl]-oxazole]: above 70%. On to `Cc1cc(N2CCc3[nH]c(-c4c(F)cccc4Cl)cc3C2)n(C)n1` [Example 63, 2-(2-Chloro-6-fluoro-phenyl)-5-(2,5-dimethyl-2H-pyrazol-3-yl)-4,5,6,7-tetrahydro-1H-pyrrolo[3,2-c]pyridine], for which the inhibition at 10 µM is above 70%. Next, `CNC(=O)c1ccc(N2CCc3[nH]c(-c4c(F)cccc4F)cc3C2)c(C)c1` [Example 80, 4-[2-(2,6-Difluoro-phenyl)-4,5,6,7-tetrahydro-1H-pyrrolo[3,2-c]pyridin-5-yl]-N,3-dimethyl-benzamide]: above 70%.

Values taken from US20160151337A1, “ANNELATED PYRROLES AND THEIR USE AS CRAC INHIBITORS” (Grünenthal GmbH, priority 2013, published 2016).
